Assay results taken from patent publication US6521790B2, “Alkynyl amides and their therapeutic applications” (Abbott Laboratories, priority 2000, dated 2003).

Experiments:
[1] = reported in literature (Abbott, Tang, Palaty 1997); cited from earlier work
[2] = one study, compared with valproic acid; cited from earlier work
[3] = tested on: electrical shock induced seizures; test: Maximum Electrical Shock Method (MES); type: in vivo; settings: oral, male CD1 mice
Excerpt: Male CD1 mice (Charles River) weighing from 25-35 g were used. Mice were pretreated orally with compounds of the present invention prior to electrical stimulation. Mice were challenge by pulsed electrical stimulation (50 mA, 0.4 s duration, pulse width 0.5 ms, 60 pulses/sec) via corneal electrodes to induce seizure. The stimulation was delivered with an ECT Unit (Ugo Basile #7801). The electrodes of the unit were coated with electrocardiogram electrolyte (Signa Creme, Parker Labs #1708) to ensure good contact with the corneas. Mice were observed post-stimulation for the onset of seizures and death. […] Animals which gave a positive seizure response were observed an additional 30 seconds for death. […] The percent protection from seizures was calculated by dividing the number of protected mice by the total number of mice for the group. The percentage of mice protected from electrical shock induced seizures at doses of 600, 1200, 1800 and 2400 μmole/kg is illustrated in Table 3 for Example 1 and Example 6. The corresponding acid, (2R)-2-propyl-4-hexynoic acid, was also tested for comparison.

[4] = tested on: pentylenetetrazole (PTZ) induced seizures; test: Latency to and protection against PTZ induced seizures in mice; type: in vivo; settings: compound 1400 μmol/kg intra-peritoneally; for Time to Seizure: average time for PTZ induced seizure, male CD1 mice, PTZ 85 mg/kg s.c., observed 15 minutes; for Number of Mice Protected: number of mice out of ten that did not seize within 15 minutes after PTZ 85 mg/kg s.c.
Description: Male CD1 mice (Charles River, Portage, Mich.) weighing 25-35 g were used and during the experiment the mice were housed individually in clear polycarbonate cages for observation. For each experiment, ten mice were each pretreated intra-peritoneally with a compound of the present invention (1400 μmol/kg) prior to pentylenetetrazole (PTZ) (Sigma, St. Louis, Mo.) injection. Seizures were induced by the subcutaneous injection of PTZ (85 mg/kg) just below the nape of the neck. […] The data in Table 1 represents the average time for PTZ induced seizure. […] Control animals were not pretreated with a compound of the present invention but were injected with PTZ (85 mg/kg) subcutaneously.

In the case of `CCCC(F)(CCC)C(=O)O` [2-fluoro-2-propylpentanoic acid], the “Anticonvulsant potency relative to VPA” value [1] is given as “less potent than VPA”.

In the case of `CC#CCC(CCC)C(=O)O` (stereo not shown) [2-propyl-4-hexynoic acid], the “Antiepileptic effect and duration of activity” value [2] is given as “effective antiepileptic with a longer duration of activity”.

With `CC#CC[C@@H](CCC)C(=O)O` [(2R)-2-propyl-4-hexynoic acid, reference compound] the “Percentage of Mice Protected Against Electrical Shock Induced Seizures” value (from here on “Percentage”) ([3]; dose 600 μmole/kg) was 0%, the “Percentage” value ([3]; dose 1200 μmole/kg) was 0% and the “Percentage” value ([3]; dose 1800 μmole/kg) was 0%. For the same compound, the “Percentage” value ([3]; dose 2400 μmole/kg) was 20%.

For `CC#CC[C@@H](CCC)C(=O)NCC(N)=O` [Example 1, (2R)-N-(2-amino-2-oxoethyl)-2-propyl-4-hexynamide], the “Percentage” value ([3]; dose 600 μmole/kg) was 0%, the “Percentage” value ([3]; dose 1200 μmole/kg) was 70% and the “Percentage” value ([3]; dose 1800 μmole/kg) was 90%. For the same compound, the “Percentage” value ([3]; dose 2400 μmole/kg) was 100%, the “Time to Seizure” value [4] was 675 s and the “Number of Mice Protected” value [4] was 5.

In the case of `CC#CC[C@@H](CCC)C(=O)N[C@H](C(N)=O)C(C)C` [Example 2, (2R)-N-[(1S)-1-(aminocarbonyl)-2-methylpropyl]-2-propyl-4-hexynamide], the “Time to Seizure” value [4] is reported as 305 s and the “Number of Mice Protected” value [4] is reported as 1.

With `CC#CC[C@@H](CCC)C(=O)N[C@@H](CC(C)C)C(N)=O` [Example 3, (2R)-N-[(1S)-1-(aminocarbonyl)-3-methylbutyl]-2-propyl-4-hexynamide] the “Time to Seizure” value [4] was 575 s and the “Number of Mice Protected” value [4] was 4.

For `CC#CC[C@@H](CCC)C(=O)N[C@@H](C)C(N)=O` [Example 4, (2R)-N-[(1S)-2-amino-1-methyl-2-oxoethyl]-2-propyl-4-hexynamide], the “Time to Seizure” value [4] was 610 s and the “Number of Mice Protected” value [4] was 6.

With `CC#CC[C@@H](CCC)C(=O)N[C@H](C)C(N)=O` [Example 5, (2R)-N-[(1R)-2-amino-1-methyl-2-oxoethyl]-2-propyl-4-hexynamide] the “Time to Seizure” value [4] was 525 s and the “Number of Mice Protected” value [4] was 2.

For `CC#CC[C@@H](CCC)C(N)=O` [Example 6, (2R)-2-propyl-4-hexynamide], the “Percentage” value ([3]; dose 600 μmole/kg) was 0%, the “Percentage” value ([3]; dose 1200 μmole/kg) was 20% and the “Percentage” value ([3]; dose 1800 μmole/kg) was 90%. For the same compound, the “Time to Seizure” value [4] was “No Seizures” and the “Number of Mice Protected” value [4] was 10.
